Measurements: PMC4585333, “Novel Regulator of Acylated Ghrelin, CF801, Reduces Weight Gain, Rebound Feeding after a Fast, and Adiposity in Mice” (Frontiers in Endocrinology, 2015)

Experiments:
Format in all cases: in vivo, male C57BL/6J mice
[1] = Rebound food intake after a fast
Experimental: (§1) In general, male C57BL/6J mice (The Jackson Laboratory, Bar Harbor, ME, USA) weighing 20–25 g were used as experimental subjects. Throughout the duration of the studies, mice were housed under standard laboratory conditions and received ad libitum access to standard laboratory mouse chow and tap water. Lights in the facility were set to go on and off at 12 h intervals with the lights going on at 7:00 a.m. In some experiments, mice also had ad libitum access to a high-fat diet containing 60% caloric content from fat (TD 06414; Harlan Teklad, Indianapolis, IN, USA) in addition to regular chow to measure dietary preferences. All procedures were approved by the Carleton University Animal Care Committee and followed the guidelines of the Canadian Council on Animal Care.
(§2) Mice (n = 16) were singly housed and given free access to water and regular chow for a 4-day baseline period. After this, mice were assigned to one of three groups: vehicle (n = 5), CF801 low dose (n = 5; 11 μmol⋅kg^−1 – LD), or CF801 high dose (n = 6; 22 μmol⋅kg^−1 – HD). These mice were injected intraperitoneally once a day for 4 days starting at 10:00 a.m. Following 4 days of treatment, animals were tested for rebound feeding after a fast. To do this, we removed the food from each cage 1 h before lights out (6:00 p.m.), and food was returned to the cage the following day 1 h after the last injection. Food intake was then monitored every hour for 4 h to determine the effects of CF801 on rebound feeding. Animals were then sacrificed by rapid decapitation to collect trunk blood and other tissues. Two samples were lost during sample collection, so the number of samples used to measure acylated ghrelin was reduced to n = 14.

Metabolic efficiency = settings: treatment period
Experimental: (§3) A second cohort of mice (n = 30) was acclimated to the laboratory conditions for 1 week prior to the onset of the experiment. Mice were housed individually and their body weight and food intake was recorded daily for a baseline period of 10 days. Given that ghrelin augments the intake of preferred diets ([28]), all mice received ad libitum access to a high-fat diet (60% of calories coming from fat), in addition to regular chow, to determine if CF801 altered dietary preference. Both chow and high-fat diet pellets were provided daily to mice ad libitum in pre-weighed amounts. Mice were then assigned to four different groups: non-injected control (NIC; n = 7), vehicle (0.9% saline) (VEH; n = 7), low-dose CF801 (11 μmol⋅kg^−1 – LD; n = 8) and high-dose CF801 (22 μmol⋅kg^−1 – HD; n = 8). Each day at 09:00 hours, mice were weighed and their food intake (both chow and high-fat diet) was recorded. After this, mice received an intraperitoneal injection of either CF801 or saline (except for the non-injected controls). Following the 13-day treatment period, half the animals in each group were sacrificed, while the remaining mice were allowed to recover from treatment. […] At this point, the remaining mice were sacrificed. Carcasses from all animals were frozen and stored at −80°C until they were scanned for body composition analyses. Immediately prior to analysis, all carcasses were thawed to room temperature and weighed in order to obtain measures relative to total carcass mass. EchoMRI carcass analyses were performed at Health Canada, Nutrition Research Division facilities using the EchoMRI-1100 (System ID EF-020) scanner. Each carcass was analyzed separately and measurements of total fat mass, total lean mass, and total water weight were obtained for each mouse.
Metabolic efficiency, defined as the amount of weight gained per calorie of energy consumed during a given time period, was calculated for each mouse during the baseline and treatment period. There were no differences in metabolic efficiency between any groups during the baseline period (data not shown).

[2] = Food intake and dietary preference (chow and high-fat diet)
Experimental: as §1, §3

[3] = Blood glucose in trunk blood; settings: after 4 days i.p. treatment, fast and refeeding, F(1,15) = 1.105, p > 0.05
Experimental: as §2
Following the treatment or recovery periods, mice were killed by rapid decapitation and plasma and tissue samples were collected. To measure glucose levels, glucose strips attached to a Contour glucose meter (Bayer Corp., Pittsburgh, PA, USA) were dipped in trunk blood collected before being centrifuged. […] Plasma acylated ghrelin for all animals was measured using an ELISA kit (Millipore).

## GSAFLSPEHQRK KRRQRRR-NH2 [CF801]
[1]; 22 μmol⋅kg^−1 i.p., after fast, F(2,24) = 2.394, p < 0.05, partial eta^2 = 0.22
  food consumed during first hour of refeeding, high dose: lower amount of food consumed
[1]; 22 μmol⋅kg^−1 i.p., HD vs saline, p < 0.01, Fisher LSD
  total chow consumed during 4-h food access, high dose vs saline: statistically significant
[1]; after fast, F(2,24) = 4.527, partial eta^2 = 0.411, p > 0.05 as printed
  total chow consumed during 4-h food access, treatment effect: significant overall dose-dependent treatment effect
[1]; any time point of 4 h refeeding other than first hour, p > 0.05
  food consumed, other time points: No significant effects were seen at any other time point examined
[1]; i.p. once daily, 11 and 22 μmol⋅kg^−1, data not shown, p > 0.05
  food intake or weight gain during first 3 days of treatment: No effects
Metabolic efficiency; 11 μmol⋅kg^−1 i.p., p < 0.05, overall F(1,29) = 9.086, partial eta^2 = 0.522
  metabolic efficiency, low dose vs NIC and VEH: significantly lower metabolic efficiencies
Metabolic efficiency; 22 μmol⋅kg^−1 i.p., p < 0.05, overall F(1,29) = 9.086, partial eta^2 = 0.522
  metabolic efficiency, high dose vs NIC and VEH: significantly lower metabolic efficiencies
Metabolic efficiency; 22 vs 11 μmol⋅kg^−1 i.p., p > 0.05
  metabolic efficiency, high dose vs low dose: no different than animals receiving LD CF801
[2]; 11 μmol⋅kg^−1 i.p. daily, 13 days, p's < 0.05
  high-fat diet intake, low dose vs NIC and VEH: significantly less high-fat diet
[2]; 22 μmol⋅kg^−1 i.p. daily, 13 days, vs every other group, F(3,28) = 5.305, p < 0.05, partial eta^2 = 0.41
  regular chow consumption, high dose: significantly more regular chow
[2]; 22 μmol⋅kg^−1 i.p. daily, 13 days, p's < 0.05
  high-fat diet intake, high dose vs NIC and VEH: significantly less high-fat diet
[2]; 8-day recovery without injection, F(1,29) = 2.093, p > 0.05
  caloric intake, recovery period: no differences between any groups
[2]; 13-day i.p. treatment, 11 and 22 μmol⋅kg^−1, chow plus high-fat diet, F(1,29) = 0.783, p > 0.05
  caloric intake, treatment period: no differences between any groups
[2]; 13-day i.p. treatment, F(3,29) = 6.788, p < 0.05, partial eta^2 = 0.45
  high-fat diet intake, dose dependence: overall significant dose-dependent decrease in the intake of the high-fat diet
[2]; 22 vs 11 μmol⋅kg^−1 i.p. daily, 13 days
  high-fat diet intake, high dose vs low dose: tended to consume less than animals receiving LD CF801 (p = 0.073)
[2]; once CF801 injections stop
  caloric intake at end of treatment period: small spike in caloric intake
[3]
  blood glucose concentrations: No significant differences
